Key:
A1 = target: T1, A1 (Homo sapiens, UniProt P30542); assay: A1 cell-based functional assay
T1 sequence (P30542 1-326): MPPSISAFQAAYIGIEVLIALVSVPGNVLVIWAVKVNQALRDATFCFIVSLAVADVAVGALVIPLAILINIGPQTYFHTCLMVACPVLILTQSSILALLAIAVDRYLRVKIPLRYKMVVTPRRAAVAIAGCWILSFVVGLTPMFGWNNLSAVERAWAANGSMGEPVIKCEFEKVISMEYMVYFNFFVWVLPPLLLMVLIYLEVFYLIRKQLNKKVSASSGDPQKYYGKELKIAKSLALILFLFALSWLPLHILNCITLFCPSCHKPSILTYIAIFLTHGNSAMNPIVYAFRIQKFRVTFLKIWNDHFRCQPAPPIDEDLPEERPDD

[1] = target: T2, human adenosine A2a receptors (Homo sapiens, UniProt P29274); assay: Adenosine A2a receptor functional assay (cAMP-inducible beta-galactosidase reporter, antagonist mode vs NECA); details: CHO-K1 cells overexpressing human adenosine A2a receptors; 50 nM NECA; read-out: A2a cell-based functional Ki
T2 construct: expressed in transfected cells; host or cells: CHO-K1
T2 sequence (P29274 whole entry): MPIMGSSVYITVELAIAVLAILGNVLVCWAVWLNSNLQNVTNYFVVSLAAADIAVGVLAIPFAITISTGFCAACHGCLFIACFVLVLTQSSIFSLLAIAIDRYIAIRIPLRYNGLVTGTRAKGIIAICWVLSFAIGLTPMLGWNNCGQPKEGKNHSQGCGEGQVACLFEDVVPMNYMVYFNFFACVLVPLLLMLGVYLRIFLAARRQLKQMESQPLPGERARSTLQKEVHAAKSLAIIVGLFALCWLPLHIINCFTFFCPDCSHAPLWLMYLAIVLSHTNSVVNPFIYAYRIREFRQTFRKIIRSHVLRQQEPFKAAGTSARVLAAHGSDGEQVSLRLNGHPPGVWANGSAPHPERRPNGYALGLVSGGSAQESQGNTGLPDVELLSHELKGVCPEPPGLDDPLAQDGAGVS
Description: Ligand binding assay of adenosine A2a receptor was performed using plasma membrane of HEK293 cells containing human A2a adenosine receptor (PerkinElmer, RB-HA2a) and radioligand [3H] CGS21680 (PerkinElmer, NET1021). Assay was set up in 96-well polypropylene plate in total volume of 200, uL by sequentially adding 20 pL1:20 diluted membrane, pLassay buffer (50 mM Tris HCl, pH7.4 10 mM MgCl2, 1 mM EDTA) containing [3H] CGS2168O, 50, uL diluted compound (4×) or vehicle control in assay buffer. Nonspecific binding was determined by […] NECA. Reaction was carried out at room temperature for 2 hours before filtering through 96 well GF/C filter plate pre-soaked in 50 mM Tris HCl, pH7.4 containing 0.3% polyethylenimine. Plates were then washed 5 times with cold 50 mM Tris HCl, pH7.4, dried and sealed at the bottom. Microscintillation fluid 30, ul was added to each well and the top sealed. Plates were counted on Packard Topcount for [3H]. Data was analyzed in Microsoft Excel and GraphPad Prism programs. […] Plates were counted at 405 nm on Vmax Machine (Molecular Devices). Data was analyzed in Microsoft Excel and GraphPad Prism programs. […]

Ki (A1): 58.4 nM
Ki [1]: 8.2 nM
Structure (SMILES): CN1CCN(C(=O)c2ccc3c(c2)-c2nc(N)nc(-c4ccccc4)c2C3=O)CC1 [Compound A, 2-Amino-8-(4-methyl-piperazine-1-carbonyl)-4-phenyl-indeno[1,2-d]pyrimidin-5-one]

Source: patent US8017614B2, “Arylindenopyrimidines compound and use as an adenosine A2a receptor antagonists” (priority 2007, dated 2011)
